Values belong to the compound of their own block, whether it stands above or below them.
Legend:
[1] = tested on: SW480; assay: Antiproliferative activity against human SW480 cells assessed as reduction in cell growth after 72 hrs by MTT assay; assay type: functional, cell-based; conditions: SW480, 72 h
[2] = tested on: K562; assay: Antiproliferative activity against human K562 cells assessed as reduction in cell growth after 72 hrs by MTT assay; assay type: functional, cell-based; conditions: K562, 72 h
[3] = tested on: K562; assay: Potency index, ratio of oridonin IC50 to compound IC50 for antiproliferative activity against human K562 cells after 72 hrs by MTT assay; assay type: functional
[4] = tested on: SMMC-7721; assay: Antiproliferative activity against human SMMC-7721 cells assessed as reduction in cell growth after 72 hrs by MTT assay; assay type: functional, cell-based; conditions: SMMC-7721, 72 h
[5] = tested on: MDA-MB-231; assay: Antiproliferative activity against human MDA-MB-231 cells assessed as reduction in cell growth after 72 hrs by MTT assay; assay type: functional, cell-based; conditions: MDA-MB-231, 72 h
[6] = Cytotoxicity against human L02 cells incubated for 72 hrs by MTT assay; assay type: toxicity, cell-based
[7] = Selectivity index, ratio of IC50 for human L02 cells to IC50 for human SMMC-7721 cells; assay type: toxicity; conditions: L02 cells versus SMMC-7721 cells, read-out: Ratio IC50

Structure (SMILES): C=C1C(=O)[C@@]23C(=O)OC[C@]4(C=CCC(C)(C)[C@H]4C=O)[C@@H]2CC[C@@H]1[C@H]3OC(=O)/C=C/C
IC50 [1]: 3800 nM | IC50 [2]: 1880 nM | IC50 [4]: 3810 nM | IC50 [5]: 5120 nM

Structure (SMILES): C=C1C(=O)[C@@]23C(=O)OC[C@]4(C=CCC(C)(C)[C@H]4C=O)[C@@H]2CC[C@@H]1[C@H]3OC(=O)/C=C/c1ccc2ccccc2n1
IC50 [1]: 3350 nM | IC50 [2]: 1230 nM | IC50 [4]: 3000 nM | IC50 [5]: 5160 nM

Structure (SMILES): C=C1C(=O)[C@@]23C(=O)OC[C@]4(C=CCC(C)(C)[C@H]4C=O)[C@@H]2CC[C@@H]1[C@H]3OC(=O)/C=C/c1ccncc1OC
IC50 [1]: 580 nM | IC50 [2]: 420 nM | IC50 [4]: 800 nM | IC50 [5]: 870 nM

Structure (SMILES): C=C1C(=O)[C@]23[C@H](O)[C@H]1CC[C@H]2[C@@]12CO[C@]3(O)[C@@H](O)[C@@H]1C(C)(C)CC[C@@H]2O [ORIDONIN]
IC50 [1]: 10600 nM | IC50 [2]: 4250 nM | IC50 at 72 h [6]: 25000 nM | IC50 [4]: 14400 nM | selectivity ratio [7]: 1.74

Structure (SMILES): C=C1C(=O)[C@@]23C(=O)O[C@H]4CCC(C)(C)[C@H]5C(=O)OC[C@]45[C@H]2CC[C@@H]1[C@H]3OC(=O)/C=C/c1ccncc1F
IC50 [1]: 970 nM | IC50 [2]: 680 nM | IC50 [4]: 990 nM | IC50 [5]: 870 nM

Structure (SMILES): C=C1C(=O)[C@@]23C(=O)OC[C@]4(C=CCC(C)(C)[C@H]4C=O)[C@@H]2CC[C@@H]1[C@H]3OC(=O)/C=C/c1ccncc1
IC50 [1]: 820 nM | IC50 [2]: 590 nM | Ratio IC50 [3]: 7 | IC50 [4]: 1710 nM | IC50 [5]: 750 nM

Structure (SMILES): C=C1C(=O)[C@@]23C(=O)OC[C@]4(C=CCC(C)(C)[C@H]4C=O)[C@@H]2CC[C@@H]1[C@H]3OC(=O)/C=C/c1ccncc1F
IC50 [1]: 730 nM | IC50 [2]: 540 nM | IC50 [4]: 620 nM | IC50 [5]: 840 nM

Structure (SMILES): C=C1C(=O)[C@@]23C(=O)OC[C@]4(C=CCC(C)(C)[C@H]4C=O)[C@@H]2CC[C@@H]1[C@H]3OC(=O)/C=C/c1ccco1
IC50 [1]: 2280 nM | IC50 [2]: 1820 nM | IC50 [4]: 2790 nM | IC50 [5]: 2920 nM

Structure (SMILES): C=C1C(=O)[C@@]23C(=O)O[C@H]4CCC(C)(C)[C@H]5C(=O)OC[C@]45[C@H]2CC[C@@H]1[C@H]3O
IC50 [1]: 6600 nM | IC50 [2]: 5520 nM | IC50 [4]: 5670 nM | IC50 [5]: 7620 nM

Structure (SMILES): C=C1C(=O)[C@@]23C(=O)OC[C@]4(C=CCC(C)(C)[C@H]4C=O)[C@@H]2CC[C@@H]1[C@H]3OC(=O)/C=C/c1ccc[nH]1
IC50 [1]: 2450 nM | IC50 [2]: 1440 nM | IC50 [4]: 2990 nM | IC50 [5]: 3990 nM

Structure (SMILES): C=C1C(=O)[C@@]23C(=O)O[C@H]4CCC(C)(C)[C@H]5C(=O)OC[C@]45[C@H]2CC[C@@H]1[C@H]3OC(=O)/C=C/c1cncnc1
IC50 [1]: 1020 nM | IC50 [2]: 930 nM | IC50 [4]: 1980 nM | IC50 [5]: 2170 nM

Structure (SMILES): C=C1C(=O)[C@@]23C(=O)O[C@H]4CCC(C)(C)[C@H]5C(=O)OC[C@]45[C@H]2CC[C@@H]1[C@H]3OC(=O)/C=C/c1ccnc(OC)c1
IC50 [1]: 940 nM | IC50 [2]: 680 nM | IC50 [4]: 960 nM | IC50 [5]: 830 nM

Structure (SMILES): C=C1C(=O)[C@@]23C(=O)OC[C@]4(C=CCC(C)(C)[C@H]4C=O)[C@@H]2CC[C@@H]1[C@H]3OC(=O)/C=C/c1ccc2c(c1)OCO2
IC50 [1]: 3490 nM | IC50 [2]: 1850 nM | IC50 [4]: 3170 nM | IC50 [5]: 3070 nM

Structure (SMILES): C=C1C(=O)[C@@]23C(=O)OC[C@]4(C=CCC(C)(C)[C@H]4C=O)[C@@H]2CC[C@@H]1[C@H]3OC(=O)/C=C/c1ccccc1
IC50 [1]: 3550 nM | IC50 [2]: 1500 nM | IC50 [4]: 3150 nM | IC50 [5]: 3230 nM

Structure (SMILES): C=C1C(=O)[C@@]23C(=O)OC[C@]4(C=CCC(C)(C)[C@H]4C=O)[C@@H]2CC[C@@H]1[C@H]3O
IC50 [1]: 2770 nM | IC50 [2]: 1270 nM | IC50 [4]: 3740 nM | IC50 [5]: 2860 nM

The next lines start with results.

IC50 [1]: 700 nM | IC50 [2]: 550 nM | IC50 [4]: 840 nM | IC50 [5]: 820 nM
Structure (SMILES): C=C1C(=O)[C@@]23C(=O)O[C@H]4CCC(C)(C)[C@H]5C(=O)OC[C@]45[C@H]2CC[C@@H]1[C@H]3OC(=O)/C=C/c1ccncc1
Ratio IC50 [3]: 8

IC50 [1]: 1690 nM | IC50 [2]: 980 nM | IC50 [4]: 1020 nM | IC50 [5]: 1480 nM
Structure (SMILES): C=C1C(=O)[C@@]23C(=O)OC[C@]4(C=CCC(C)(C)[C@H]4C=O)[C@@H]2CC[C@@H]1[C@H]3OC(=O)/C=C/c1ccnc(C)c1

IC50 [1]: 3270 nM | IC50 [2]: 2440 nM | IC50 [4]: 3840 nM | IC50 [5]: 3760 nM
Structure (SMILES): C=C1C(=O)[C@@]23C(=O)OC[C@]4(C=CCC(C)(C)[C@H]4C=O)[C@@H]2CC[C@@H]1[C@H]3OC(=O)/C=C/c1ccsc1

IC50 [1]: 1110 nM | IC50 [2]: 750 nM | IC50 [4]: 920 nM | IC50 [5]: 790 nM
Structure (SMILES): C=C1C(=O)[C@@]23C(=O)OC[C@]4(C=CCC(C)(C)[C@H]4C=O)[C@@H]2CC[C@@H]1[C@H]3OC(=O)/C=C/c1ccnc(F)c1

IC50 [1]: 980 nM | IC50 [2]: 750 nM | IC50 [4]: 1980 nM | IC50 [5]: 2260 nM
Structure (SMILES): C=C1C(=O)[C@@]23C(=O)OC[C@]4(C=CCC(C)(C)[C@H]4C=O)[C@@H]2CC[C@@H]1[C@H]3OC(=O)/C=C/c1cncnc1

IC50 [1]: 660 nM | IC50 [2]: 560 nM | IC50 [4]: 790 nM | IC50 [5]: 1260 nM
Structure (SMILES): C=C1C(=O)[C@@]23C(=O)OC[C@]4(C=CCC(C)(C)[C@H]4C=O)[C@@H]2CC[C@@H]1[C@H]3OC(=O)/C=C/c1ccccn1

IC50 [1]: 780 nM | IC50 [2]: 650 nM | IC50 [4]: 810 nM | IC50 [5]: 760 nM
Structure (SMILES): C=C1C(=O)[C@@]23C(=O)O[C@H]4CCC(C)(C)[C@H]5C(=O)OC[C@]45[C@H]2CC[C@@H]1[C@H]3OC(=O)/C=C/c1ccnc(F)c1

IC50 [1]: 760 nM | IC50 [2]: 910 nM | IC50 [4]: 1080 nM | IC50 [5]: 1080 nM
Structure (SMILES): C=C1C(=O)[C@@]23C(=O)O[C@H]4CCC(C)(C)[C@H]5C(=O)OC[C@]45[C@H]2CC[C@@H]1[C@H]3OC(=O)/C=C/c1ccncc1C

IC50 [1]: 3100 nM | IC50 [2]: 1890 nM | IC50 [4]: 2200 nM | IC50 [5]: 2430 nM
Structure (SMILES): C=C1C(=O)[C@@]23C(=O)OC[C@]4(C=CCC(C)(C)[C@H]4C=O)[C@@H]2CC[C@@H]1[C@H]3OC(=O)/C=C/c1ccc2ccccc2c1
